Experimental data from patent US7482488B2, “Aryl and heteroaryl propene amides, derivatives thereof and therapeutic uses thereof” (Temple University - Of The Commonwealth System of Higher …, priority 2002, dated 2009).

Key:
Assay type in all cases: cell-based, human
BT20 (breast cancer) = experiment: Effect on tumor cell lines: viable cell count by trypan blue exclusion, BT20; details: BT20 breast cancer cells; 100 nM to 10 μM; viable cells counted 96 hours after treatment
Experimental: (§1) The effect of the aromatic acrylamides on normal fibroblasts and on tumor cells was determined by the assay described by Latham et al.,Oncogene 12:827-837 (1996). Normal diploid lung human fibroblasts (HFL-1) or tumor cells (BT20(breast cancer), DLD1 (colorectal cancer), DU145 (prostate cancer and K562 (chronic myelogenous leukemia )) were plated in 6-well dishes at a cell density of 1.0 ×10^5cells per 35-mm^2 well. The plated cells were treated 24 hours later with a compound of the invention, dissolved in DMSO at multiple concentrations ranging from 100 nM to 10 μM. The total number of viable cells was determined 96 hours later by trypsinizing the wells and counting the number of viable cells, as determined by trypan blue exclusion, using a hemacytometer. Normal HFL cells were treated with the same compounds under the same conditions of concentration and time.
(§2) Representative examples of activities of compounds of the invention in cell lines: BT20(breast cancer), DLD1 (colorectal cancer), DU145 (prostate cancer and K562 (chronic myelogenous leukemia ) are listed in Table 5.

DU145 (prostate cancer) = experiment: Effect on tumor cell lines: viable cell count by trypan blue exclusion, DU145; details: DU145 prostate cancer cells; 100 nM to 10 μM; viable cells counted 96 hours after treatment
Experimental: as §1, §2

[1] = tested on: K562 (chronic myelogenous leukemia); experiment: Effect on tumor cell lines: viable cell count by trypan blue exclusion, K562; details: K562 chronic myelogenous leukemia cells; 100 nM to 10 μM; viable cells counted 96 hours after treatment
Experimental: as §1, §2

DLD1 (colorectal cancer) = experiment: Effect on tumor cell lines: viable cell count by trypan blue exclusion, DLD1; details: DLD1 colorectal cancer cells; 100 nM to 10 μM; viable cells counted 96 hours after treatment
Experimental: as §1, §2

Row | Compound | BT20 activity (BT20 (breast cancer)) | DU145 activity (DU145 (prostate cancer)) | K562 activity [1] | DLD1 activity (DLD1 (colorectal cancer))
1 | COc1ccc(NC(=O)/C=C/c2c(OC)cc(OC)cc2OC)cc1 [Example 1, (E)-N-(4-Methoxyphenyl)-3-(2,4,6-trimethoxyphenyl)-2-propen-amide] | +++ (+++ denotes activity at 100 nM) | +++ (+++ denotes activity at 100 nM) | +++ (+++ denotes activity at 100 nM) | +++ (+++ denotes activity at 100 nM)
2 | COc1ccc(NC(=O)/C=C/c2c(OC)cccc2OC)cc1 [Example 2, (E)-N-(4-Methophenyl)-3-(2,6-dimethoxypheyl)-2-propenamide] | + (+ denotes activity at >10 μM) | + (+ denotes activity at >10 μM) | + (+ denotes activity at >10 μM) | + (+ denotes activity at >10 μM)
3 | COc1ccc(NC(=O)/C=C/c2cc(OC)c(OC)c(OC)c2)cc1N [Example 4, (E)-N-(4-Methoxy-3-aminophenyl)-3-(3,4,5-trimethoxyphenyl)-2-propenamide] | + (+ denotes activity at >10 μM) | + (+ denotes activity at >10 μM) | + (+ denotes activity at >10 μM) | + (+ denotes activity at >10 μM)
4 | COc1cc(OC)c(/C=C/C(=O)Nc2ccc(OC)c(N)c2)c(OC)c1 [Example 6, (E)-N-(4-methoxy-3-aminophenyl)-3-(2,4,6-trimethoxyphenyl)-2-propenamide] | +++ (+++ denotes activity at 100 nM) | +++ (+++ denotes activity at 100 nM) | +++ (+++ denotes activity at 100 nM) | +++ (+++ denotes activity at 100 nM)
5 | COc1ccc(NC(=O)/C=C/c2c(F)c(F)c(F)c(F)c2F)cc1[N+](=O)[O-] [Example 7, (E)-N-(4-Methoxy-3-nitrophenyl)-3-(2,3,4,5,6-pentafluorophenyl)-2-propenamide] | ++ (++ denotes activity at 10 μM) | ++ (++ denotes activity at 10 μM) | ++ (++ denotes activity at 10 μM) | ++ (++ denotes activity at 10 μM)
6 | COc1ccc(NC(=O)/C=C/c2ccc(N)c(F)c2)cc1N [Example 9, (E)-N-(4-Methoxy-3-aminophenyl)-3-(3-fluoro-4-aminophenyl)-2-propenamide] | ++ (++ denotes activity at 10 μM) | ++ (++ denotes activity at 10 μM) | ++ (++ denotes activity at 10 μM) | ++ (++ denotes activity at 10 μM)
7 | COc1cc(OC)c(/C=C/C(=O)Nc2ccc(OC)c(NC(=O)C(F)(F)F)c2)c(OC)c1 [Example 10, (E)-N-(4-Methoxy-3-trifluoroacetamidophenyl)-3-(2,4,6-trimethoxyphenyl)-2-propenamide] | +++ (+++ denotes activity at 100 nM) | +++ (+++ denotes activity at 100 nM) | +++ (+++ denotes activity at 100 nM) | +++ (+++ denotes activity at 100 nM)
8 | COc1cc(OC)c(/C=C/C(=O)Nc2ccc(OC)c(O)c2)c(OC)c1 [Example 11, (E)-N-(3-Hydoxy-4-methoxyphenyl)-3-(2,4,6-trimethoxyphenyl)-2-propenamide] | ++++ (++++ denotes activity at <100 nm) | ++++ (++++ denotes activity at <100 nm) | ++++ (++++ denotes activity at <100 nm) | ++++ (++++ denotes activity at <100 nm)
9 | COc1cc(/C=C/C(=O)Nc2ccc(Br)cc2)ccc1F [Example 12, (E)-N-(4-Bromophenyl)-3-(3-methoxy-4fluorophenyl)-2-propenamide] | ++ (++ denotes activity at 10 μM) | ++ (++ denotes activity at 10 μM) | ++ (++ denotes activity at 10 μM) | ++ (++ denotes activity at 10 μM)
10 | N#Cc1cc(/C=C/C(=O)Nc2ccc(Br)cc2)ccc1F [Example 13, (E)-N-(4-Bromophenyl)-3-(3-cyano-4-fluorophenyl)-2-propenamide] | ++ (++ denotes activity at 10 μM) | ++ (++ denotes activity at 10 μM) | ++ (++ denotes activity at 10 μM) | ++ (++ denotes activity at 10 μM)
